Source: paper PMC9957399, “New Insights into the Inhibition of Hesperetin on Polyphenol Oxidase: Inhibitory Kinetics, Binding Characteristics, Conformational Change and Computational Simulation” (Foods, 2023)
Marks after values point to notes of the source that are not given here.

How the values were obtained:
PPO [1] = target: PPO (Agaricus bisporus, UniProt C7FF04); experiment: Kinetic analysis of inhibitory type (v vs [PPO], Lineweaver–Burk plots, L-dopa); type: biochemical, mushroom; conditions: for inhibitory type: Lineweaver–Burk plots, hesperetin 0, 300, 600, 1200 μM
PPO (Agaricus bisporus, UniProt C7FF04), sequence (C7FF04 1-392): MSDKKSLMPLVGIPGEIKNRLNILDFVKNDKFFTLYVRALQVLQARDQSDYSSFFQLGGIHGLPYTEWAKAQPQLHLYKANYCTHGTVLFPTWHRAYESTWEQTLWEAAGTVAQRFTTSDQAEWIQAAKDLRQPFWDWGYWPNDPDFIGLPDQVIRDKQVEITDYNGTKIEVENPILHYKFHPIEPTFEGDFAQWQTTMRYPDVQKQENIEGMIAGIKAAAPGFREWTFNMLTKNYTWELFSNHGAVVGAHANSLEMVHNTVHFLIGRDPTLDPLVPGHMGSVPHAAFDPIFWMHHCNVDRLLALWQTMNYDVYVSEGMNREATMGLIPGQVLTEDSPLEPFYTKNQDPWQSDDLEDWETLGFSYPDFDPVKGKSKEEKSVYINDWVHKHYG
PPO (Agaricus bisporus, UniProt C7FF04), sequence (G1K3P4 entry or part of it, further chain): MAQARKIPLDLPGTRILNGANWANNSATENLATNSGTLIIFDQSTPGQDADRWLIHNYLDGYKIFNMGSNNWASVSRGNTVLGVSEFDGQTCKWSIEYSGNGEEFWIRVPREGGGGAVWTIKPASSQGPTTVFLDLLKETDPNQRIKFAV
From the text: The inhibitory type of hesperetin against PPO could be evaluated using Lineweaver–Burk plots, and the mixed inhibition was described through Equation (1):(1) 1/v=Km/Vmax(1+[I]/Ki)1/[S]+1/Vmax(1+[I]/αKi) where v and Vmax represent enzyme reaction velocity and its maximum value, respectively. [I], [S] and Km are the concentrations of hesperetin and L-dopa, and the Michaelis–Menten constant, respectively. α denotes the apparent coefficient and Ki represents dissociation constant of hesperetin binding with free PPO, which can be calculated using the secondary Equations (2) and (3). (2) Slope=Km/Vmax+Km[I]/VmaxKi (3) Y-intercept=1/Vmaxapp=1/Vmax+1/αVmaxKi[I]
At different concentrations of hesperetin, the effect on the enzymatic reaction rate (ΔOD/min) by increasing the concentrations of PPO were shown in Figure 1E. […] As the concentration of hesperetin increased, the slopes of the lines declined.
Four lines intersected in the second quadrant. Either the slopes or the Y-intercept of four lines augmented with the rising concentrations of hesperetin, which represented the values of Km increased in a concentration-dependent manner while that of Vmax decreased. […] The inhibition mechanism of hesperetin against PPO deserved further exploration. […] Thus, hesperetin may have a better chance to bind with free PPO instead of PPO–hesperetin complex.

PPO [2] = tested on: T1, PPO; experiment: Fluorometric titration (fluorescence quenching of PPO); type: binding, mushroom
T1 construct: purchased Worthington Biochemical Co. (Lakewood, CO, USA)
Protocol: Fluorescence spectra were measured at 298, 304 and 310 K by a fluorophotometer (F–7000, Hitachi, Tokyo, Japan). Briefly, the concentration of PPO was 2.0 μM, and the same volume of hesperetin was added into the PPO solution (2.0 mL) 10 times (0→25.0 μM). After each addition of hesperetin, 3 min was timed to equilibrate the mixed system. Then, the emission spectra (290–500 nm) were scanned at fixed excitation wavelength (280 nm).
To deduct the effect of internal filtration, all measured fluorescence data were processed through Formula (5):(5) FC=FMe^(A1+A2)/2 where FC and FM represent the corrected and detected fluorescence, respectively. A1 and A2 stand for the absorbance values of hesperetin at excitation and emission wavelengths, respectively.
The Stern–Volmer curves for PPO fluorescence quenched by hesperetin at each temperature were obtained through Equation (6):(6) F0/F=1+Kqτ0[Q]=1+Ksv[Q] where F and F0 denote the fluorescence intensity of PPO with and without hesperetin, respectively. Ksv, Kq and [Q] represent the fluorescence quenching constant, quenching rate constant and the concentration of hesperetin, respectively. τ0 represents the average fluorophore lifetime without hesperetin, and its value is usually equal to 10^−8 s.
Based on the following equation, the information about the interaction between hesperetin and PPO were obtained, including binding constant (Ka) and binding number (n):(7) logF0−F/F=nlogKa−nlog1/[Qt]−(F0−F)[Pt]/F0 where [Qt] and [Pt] stand for the concentrations of hesperetin and PPO. […] The n values at 298, 304 and 310 K were all equal to 1, implying that only one site existed when hesperetin interacted with PPO.
The values of ΔH°, ΔS° and ΔG°, which refer to enthalpy change, entropy change and free energy change, respectively, were obtained by the van ’t Hoff equations [42]:(8) logKa=−ΔH°/2.303RT+ΔS°/2.303R (9) ΔG°=ΔH°−TΔS° where T represents temperature; R represents gas constant, and its value is 8.314 J mol^−1 K^−1.

PPO (monophenolase) = PPO (monophenolase) (Agaricus bisporus, UniProt C7FF04); experiment: PPO activity assay, monophenolase (L-tyrosine oxidation); type: biochemical, mushroom
PPO (monophenolase), sequence (C7FF04 1-392): as the sequence (C7FF04 1-392) above
PPO (monophenolase), sequence (G1K3P4 1-150 partner): as the sequence (G1K3P4 entry or part of it, further chain) above
Protocol: To determine the monophenolase inhibitory activity of hesperetin, PPO (0.2 μΜ) was mixed with various concentrations of hesperetin (0, 25, 50, 100, 150, 200, 250 and 500 μM), and the mixtures were incubated at 30 °C. After 1 h, L-tyrosine (0.5 mΜ, substrate) was added to the mixtures, and the detection began.

PPO [3] = tested on: PPO; parameters: method as in PMID 22093614; conditions: cited from earlier work
monophenolase = target: monophenolase; parameters: method as in PMID 28873682; conditions: previous study; read-out: IC50 on the inhibition of monophenolase activity; cited from earlier work

COc1ccc([C@@H]2CC(=O)c3c(O)cc(O)cc3O2)cc1O [hesperetin, Hesperetin]
α (apparent coefficient) (PPO [1]; L-dopa substrate, mixed inhibition model): 2.93 | inhibitory type (PPO [1]): mixed-type inhibitor | inhibitory type (PPO [1]; listed as Hesperetin): mixed inhibitor | reversibility of inhibition (PPO [1]; plots of v versus [PPO], L-dopa 0.5 mM): reversibly inhibited | Kq (quenching rate constant) (PPO [2]; 298, 304 and 310 K, τ0 = 10^−8 s, compared with maximum diffusion collision quenching constant): > 2e+10 M⁻¹ s⁻¹ | Ka (PPO [2]; 298 K): 19800 L/mol | Ka (binding constant) (PPO [2]; 298 K): 1.98 ± 0.01 ^a ×10^4 L mol^−1 | Ksv (PPO [2]; 298 K): (1.71 ± 0.01) × 10^4 L mol^−1 | Ksv (quenching constant) (PPO [2]; 298 K): 1.71 ± 0.01 ^a ×10^4 L mol^−1 | n (number of binding sites) (PPO [2]; 298 K): 1.23 ± 0.03 | Ka (PPO [2]; 304 K): 20500 L/mol | Ka (binding constant) (PPO [2]; 304 K): 2.05 ± 0.02 ^b ×10^4 L mol^−1 | Ksv (PPO [2]; 304 K): (1.76 ± 0.02) × 10^4 L mol^−1 | Ksv (quenching constant) (PPO [2]; 304 K): 1.76 ± 0.02 ^b ×10^4 L mol^−1 | n (number of binding sites) (PPO [2]; 304 K): 1.08 ± 0.01 | Ka (PPO [2]; 310 K): 22200 L/mol | Ka (binding constant) (PPO [2]; 310 K): 2.22 ± 0.05 ^c ×10^4 L mol^−1 | Ksv (PPO [2]; 310 K): (2.09 ± 0.02) × 10^4 L mol^−1 | Ksv (quenching constant) (PPO [2]; 310 K): 2.09 ± 0.02 ^c ×10^4 L mol^−1 | n (number of binding sites) (PPO [2]; 310 K): 0.99 ± 0.04 | n values (PPO [2]; at 298, 304 and 310 K): 1 | lag time of L-tyrosine oxidation (PPO (monophenolase); hesperetin at 500.0 μM, extended from 1.08 min without inhibitor): 10.33 min | remaining activity at 100 µM (PPO (monophenolase); read-out: residual activity of PPO (monophenolase)): 41.2% | inhibitory type (previous study) (PPO [3]): competitive PPO inhibitor

O=c1c(O)c(-c2ccc(O)c(O)c2)oc2cc(O)cc(O)c12 [quercetin]
IC50 (monophenolase): 19.4 ± 0.35 µM
